Measurements: patent publication US4259332A, “Novel taurine derivatives” (priority 1979, dated 1981)
Where two headings read alike, the source gives them in different places.

Experiments:
[1] = Vasodilator activity (vasodilation of the ocular conjunctiva in guinea pigs); assay type: in vivo, guinea pig
[2] = Choleretic activity in cannulated rats; assay type: in vivo, rat; conditions: for Bile dry residue change / Bile volume change / Bile dry residue after 2 h / Bile volume after 2 h: 100 mg/kg i.v.; for Bile dry residue after 2 h / Bile volume after 2 h: given after first hour; for Bile dry residue after 1 h / Bile volume after 1 h: before treatment (first hour)
Experimental: Rats were fitted with a cannula, the bile volume was measured after the first hour, they were then treated with a test compound and the bile volume was measure after the second hour, so as to determine the percentage change. The various compounds were administered intravenously at a dose of 100 mg/kg.

[3] = Antipyretic activity: pyrexia from subcutaneous yeast in the rat; assay type: in vivo; conditions: p.o., ASA 200, AST 300 mg/Kg
Experimental: Pyrexia from subcutaneous yeast in the rat. The AST product was administered orally in the acid from and the salt form with sodium, and by the intraperitoneal method in the salt form. It was compared with a molar equivalent dose of acetylsalicylic acid administered orally and with a carboxymethylcellulose placebo. The pyrexia was induced with a subcutaneous injection of yeast on the evening prior to the drug treatment, i.e. 16 hours before.

[4] = Analgesic activity: convulsions produced by phenylquinone; assay type: in vivo, mouse; conditions: oral, ASA 200, AST 300 mg/Kg
Experimental: (A) Test of convulsions produced by phenylquinone injected into mice by the intraperitoneal route. The AST product was administered orally both in the acid form (AST Ac). and as the sodium salt (AST Na). It was compared with a molar equivalent dosage of acetylsalicylic acid and with a carboxymethylcellulose placebo. The convulsions were induced at varying intervals from the oral treatment counting from the first 20 minutes after the injection of phenylquinone.

[5] = Edema resulting from yeast in the paw of the rat; assay type: in vivo; conditions: oral, ASA 200, AST 300 mg/Kg
Experimental: (A) Edema resulting from yeast in the paw of the rat. The AST product was administered orally both in the acid and sodium salt form. It was compared with a molar equivalent dose of acetylsalicylic acid and with carboxymethylcellulose placebo. The edema of the paw was induced with a local injection of the yeast simultaneously with the oral treatment with the drugs, and the volume of the paw was measured in hundredths of milliliter.

[6] = Edema as a result of nystatin in the rat's paw; assay type: in vivo; conditions: p.o.
Experimental: (B) Edema as a result of nystatin in the rat's paw. The long duration of this type of edema enabled the animals to be repeatedly treated in order to ascertain the presence if any of the protracted effect of the AST product also using parenteral administration. The comparison was carried out using a molar equivalent dose of acetylsalicylic acid administrated orally and with the carboxymethylcellulose placebo also only administered orally. The AST product was used in the acid form orally and in the salt form using intraperitoneal administration.
The dosages of the drugs, always proportional to one another, were varied from day to day, i.e.: the first day a dosage of 200 mg/Kg of ASA and 300 mg/Kg of AST; the second day a double dose of each; the third day a double dose of each divided into two equal components administered with a spacing of 9 hours (10 am and 7 pm respectively); the fourth day no treatment in order to check the length of the effect after the fourth administration.
The […] was injected into the paw on the night before the first treatment with the drugs and the volume of the paw was measured in hundredths of milliliter.

[7] = mouse, literature, cited from earlier work
[8] = assay type: in vivo, rat; conditions: fasted rats, oral, 225 mg/Kg acetylsalicylic acid
Experimental: Rats which had not been fed for 24 hours were used. The AST product was administered orally as the acid or the sodium salt at a dosage of 335 mg/Kg suspended in 1% carboxymethylcellulose. […] Both the methods of treatment and the observation time were identical for the 3 groups of animals.

[9] = Analgesic activity: mechanical pressure test on inflamed rat's paw; assay type: in vivo; conditions: oral, ASA 200, AST 300 mg/Kg
Experimental: (B) Mechanical pressure test on inflamed rat's paw. The AST product was administered both in the acid and sodium salt form by the oral method. It was compared with a molar equivalent dosage of acetylsalicylic acid and with a carboxymethylcellulose placebo. The inflammation of the paw was induced by a local injection of yeast simultaneously with the oral treatment with the drugs and the tenderness was measured in grams of mechanical pressure required to cause a reaction in the animal.

[10] = Protection against hepatic intoxication by CCl4 and cold, Compound B (BSF in blood); assay type: in vivo; conditions: 500 mg/kg endoperitoneal
Experimental: Oral administration of 5 ml/kg of a 20% solution of CCl4 in oil, with simultaneous endoperitoneal administration of 500 mg/kg of Compound B, was followed by exposure for 5 hours at 4° C. BSF in the blood (30 mg/kg i.v.) was tested. A comparison product, homocysteinethiolactone (OCT) was employed.
10 Animals were treated per group, and the results expressed as percentage change with respect to the controls were as shown in Table 4.

[11] = Antilipemic action, Morris or Handler diet, Compound A; assay type: in vivo, Wistar rat; conditions: 50 days, 200 mg/kg orally
Experimental: Wistar rats were treated for 50 days with a Morris diet or a Handler diet. Simultaneously with the diet they received 200 mg/kg of Compound A or of choline orally every day. The controls only received the diet. The following were examined at the end of the treatment: (a) total cholesterol, total lipids and beta-lipoproteins in the serum, (b) BSF excretion in the bile.

[12] = Antilipemic action, Morris, Handler or Nath diet, Compound B; assay type: in vivo, Wistar rat; conditions: 45 days, 200 mg/kg orally
Experimental: Wistar rats were treated for 45 days with a Morris diet, a Handler diet or a Nath diet. Simultaneously with the diet they received each day 200 mg/kg of Compound B or choline (except for the Nath diet) orally.

SMILES: O=C(O)c1cccnc1 [Nicotinic acid, nicotinic acid]
- Vasodilator effect: duration ([1]; 10.0 mg/kg endoperitoneal): 0 min
- Vasodilator effect: positive response ([1]; 10.0 mg/kg endoperitoneal): 0%
- Vasodilator effect: time of appearance ([1]; 10.0 mg/kg endoperitoneal): 0 s
- Vasodilator effect: positive response ([1]; 25.0 mg/kg endoperitoneal): 20%
- Vasodilator effect: duration ([1]; 50.0 mg/kg endoperitoneal): 87 min
- Vasodilator effect: positive response ([1]; 50.0 mg/kg endoperitoneal): 80%
- Vasodilator effect: time of appearance ([1]; 50.0 mg/kg endoperitoneal): 180 s

SMILES: CCC(C(=O)O)C1(O)CCC(c2ccccc2)CC1 (stereo not drawn) [α-(1-hydroxy-4-phenylcyclohexyl)butyric acid]
- Bile dry residue change [2]: +39.1%
- Bile volume change [2]: +90.0%
- Bile dry residue after 2 h [2]: 32.7 mg/h
- Bile volume after 2 h [2]: 1.14 mL/h
- Bile dry residue after 1 h [2]: 23.5 mg/h
- Bile volume after 1 h [2]: 0.60 mL/h

SMILES: CC(=O)Oc1ccccc1C(=O)O [ASA, acetylsalicylic acid, reference compound]
- % Inhibition of the pyrexia in respect of treatment with placebo ([3]; 1h): 78%
- % Inhibition of the pyrexia in respect of treatment with placebo ([3]; 2h): 103%
- % Inhibition of the pyrexia in respect of treatment with placebo ([3]; 4h): 114%
- % Inhibition of the pyrexia in respect of treatment with placebo ([3]; 6h): 58%
- % Inhibition of the pyrexia in respect of treatment with placebo ([3]; 8h): 45%
- Inhibition % of convulsions in respect of treatment with placebo ([4]; 1h): 23%
- Inhibition % of convulsions in respect of treatment with placebo ([4]; 2h): 37%
- Inhibition % of convulsions in respect of treatment with placebo ([4]; 4h): 17%
- Inhibition of the edema with respect to treatment with placebo ([5]; 1h): 41
- Inhibition of the edema with respect to treatment with placebo ([5]; 3h): 51
- Inhibition of the edema with respect to treatment with placebo ([5]; 5h): 55
- % Inhibition of the edema in respect of treatment with placebo ([6]; 1st day, 2h after 1st dose, ASA 200, AST Ac 300 mg/Kg): 8%
- % Inhibition of the edema in respect of treatment with placebo ([6]; 1st day, 4h after 1st dose, ASA 200, AST Ac 300 mg/Kg): 10%
- % Inhibition of the edema in respect of treatment with placebo ([6]; 1st day, 8h after 1st dose, ASA 200, AST Ac 300 mg/Kg): 7%
- % Inhibition of the edema in respect of treatment with placebo ([6]; 2nd day, 2h after 2nd dose, ASA 400, AST Ac 600 mg/Kg): 10%
- % Inhibition of the edema in respect of treatment with placebo ([6]; 2nd day, 4h after 2nd dose, ASA 400, AST Ac 600 mg/Kg): 11%
- % Inhibition of the edema in respect of treatment with placebo ([6]; 2nd day, 8h after 2nd dose, ASA 400, AST Ac 600 mg/Kg): 15%
- % Inhibition of the edema in respect of treatment with placebo ([6]; 3rd day, 2h after 3rd dose, ASA 200, AST Ac 300 mg/Kg): 8%
- % Inhibition of the edema in respect of treatment with placebo ([6]; 3rd day, 4h after 3rd dose, ASA 200, AST Ac 300 mg/Kg): 11%
- % Inhibition of the edema in respect of treatment with placebo ([6]; 3rd day, 8h after 3rd dose, ASA 200, AST Ac 300 mg/Kg): 14%
- % Inhibition of the edema in respect of treatment with placebo ([6]; 4th day, 13h after 4th dose, ASA 200, AST Ac 300 mg/Kg): 9%
- % Inhibition of the edema in respect of treatment with placebo ([6]; 4th day, 17h after 4th dose, ASA 200, AST Ac 300 mg/Kg): 12%
- % Inhibition of the edema in respect of treatment with placebo ([6]; 4th day, 23h after 4th dose, ASA 200, AST Ac 300 mg/Kg): 8%
- LD50 ([7]; intraperitoneal): 420 mg/kg
- LD50 ([7]; oral): 1,050 mg/kg
- Haemorrhagic gastric ulcers [8]: 5 to 10
- % Inhibition of the hyperalgesia in respect of treatment with placebo ([9]; 1h): 27%
- % Inhibition of the hyperalgesia in respect of treatment with placebo ([9]; 5h): 0%

SMILES: O=C(OC1C(OC(=O)c2cccnc2)C(OC(=O)c2cccnc2)C(OC(=O)c2cccnc2)C(OC(=O)c2cccnc2)C1OC(=O)c1cccnc1)c1cccnc1 (centres unmarked) [Mesoinosital hexanicotinate, mesoinosital hexanicotinate]
- Vasodilator effect: duration ([1]; 1.0 mg/kg endoperitoneal): 0 min
- Vasodilator effect: positive response ([1]; 1.0 mg/kg endoperitoneal): 0%
- Vasodilator effect: duration ([1]; 10.0 mg/kg endoperitoneal): 87 min
- Vasodilator effect: positive response ([1]; 10.0 mg/kg endoperitoneal): 100%
- Vasodilator effect: time of appearance ([1]; 10.0 mg/kg endoperitoneal): 81 s

SMILES: NC1CCSC1=O (centres unmarked) [OCT, homocysteinethiolactone, reference compound]
- Hepatic intoxication protection, percentage change of BSF in blood vs controls ([10]; test number 1): -22.7%
- Hepatic intoxication protection, percentage change of BSF in blood vs controls ([10]; test number 2): -18.5%

SMILES: C[N+](C)(C)CCO [Choline, choline, reference compound]
- Bile BSF excretion, percentage change vs controls ([11]; Handler diet): -39.5%
- Serum total cholesterol, percentage change vs controls ([11]; Handler diet): -21.1%
- Serum total lipids, percentage change vs controls ([11]; Handler diet): +44.2%
- Bile BSF excretion, percentage change vs controls ([11]; Morris diet): -2.8%
- Serum beta-lipoproteins, percentage change vs controls ([11]; Morris diet): +89.8%
- Serum total cholesterol, percentage change vs controls ([11]; Morris diet): -22.9%
- Serum total lipids, percentage change vs controls ([11]; Morris diet): +2.3%
- Bile BSF, percentage change vs control ([12]; Handler diet, B and Choline): -39.5%
- Liver total lipids, percentage change vs control ([12]; Handler diet, B and Choline): -29.2%
- Serum total cholesterol, percentage change vs control ([12]; Handler diet, B and Choline): -21.1%
- Serum total lipids, percentage change vs control ([12]; Handler diet, B and Choline): +44.2%
- Bile BSF, percentage change vs control ([12]; Morris diet): -2.8%
- Liver total lipids, percentage change vs control ([12]; Morris diet): +14.0%
- Serum beta-lipoproteins, percentage change vs control ([12]; Morris diet): +89.8%
- Serum total cholesterol, percentage change vs control ([12]; Morris diet): -22.9%
- Serum total lipids, percentage change vs control ([12]; Morris diet): +2.3%

SMILES: O=C(O)C(O)C(O)C(=O)O.OCc1cccnc1 (centres unmarked) [3-Pyridylcarbinol tartrate, 3-pyridylcarbinol tartrate]
- Vasodilator effect: duration ([1]; 0.1 mg/kg endoperitoneal): 0 min
- Vasodilator effect: positive response ([1]; 0.1 mg/kg endoperitoneal): 0%
- Vasodilator effect: time of appearance ([1]; 0.1 mg/kg endoperitoneal): 0 s
- Vasodilator effect: positive response ([1]; 1.0 mg/kg endoperitoneal): 40%
- Vasodilator effect: duration ([1]; 10.0 mg/kg endoperitoneal): 120 min
- Vasodilator effect: positive response ([1]; 10.0 mg/kg endoperitoneal): 100%
- Vasodilator effect: time of appearance ([1]; 10.0 mg/kg endoperitoneal): 57 s

SMILES: O=S(=O)(O)CCNCCO [N-hydroxyethyltaurine]
- Bile dry residue change [2]: -10.9%
- Bile volume change [2]: -12.2%
- Bile dry residue after 2 h [2]: 26.0 mg/h
- Bile volume after 2 h [2]: 0.72 mL/h
- Bile dry residue after 1 h [2]: 29.1 mg/h
- Bile volume after 1 h [2]: 0.82 mL/h
